Source: US9920012B2, “Indazole guanidine F1F0-ATPase inhibitors and therapeutic uses thereof” (Lycera Corporation, priority 2012, dated 2018)
Read-outs that look alike come from different tables or passages of the source.

How the values were obtained:
Ramos cells = assay: Cytotoxicity in Ramos cells; format: cell-based; settings: detection limit EC50=16 μM, read-out: Ramos Cell EC50
Method: (§1) Exemplary compounds described in above Examples were tested for activity against F1F0-ATPase by measuring the ability of the compounds to inhibit ATP synthesis. In addition, the compounds were assessed for cytotoxicity in Ramos cells. Inhibition of F1F0-ATPase activity in synthesizing ATP and cytotoxicity in Ramos cells were measured according to the procedures described in K. M. Johnson et al. Chemistry & Biology 2005, 12, 485-496.

F1F0-ATPase = biological target: T1, F1F0-ATPase (Bos taurus, UniProt P13621); assay: Inhibition of F1F0-ATPase activity in synthesizing ATP; format: biochemical; settings: inhibition of ATP synthesis; detection limit IC50=16 μM; read-out: ATP Syn IC50
T1 construct: from tissue
Method: as §1

| SMILES | IC50 (F1F0-ATPase) [µM] | EC50 (Ramos cells) [µM] | EC50 (Ramos cells; Homo sapiens) [µM] |
| --- | --- | --- | --- |
| CC(C)(C)N/C(=N/C(=O)c1ccc(F)c(F)c1)Nc1n[nH]c2cncc(F)c12 [Compound A-32] | < 5 | 5 to 16 | – |
| CC(C)CN/C(=N/C(=O)c1ccc(F)c(F)c1)Nc1n[nH]c2ccccc12 [Compound A-35] | > 16 | > 16 | – |
| COC[C@H](C)N/C(=N/C(=O)c1ccc(F)c(F)c1)Nc1n[nH]c2ccccc12 [Compound A-37] | 5 to 16 | > 16 | – |
| CCOCCN/C(=N/C(=O)c1ccc(F)c(F)c1)Nc1n[nH]c2ccccc12 [Compound A-38] | > 16 | > 16 | – |
| CC(C)(C)N/C(=N/C(=O)c1ccc(F)c(F)c1)Nc1n[nH]c2cncc(Cl)c12 [Compound A-40] | < 5 | < 5 | – |
| CC(C)(C)CN/C(=N/C(=O)c1ccc(F)c(F)c1)Nc1n[nH]c2cncc(Cl)c12 [Compound A-42] | < 5 | 5 to 16 | – |
| COCC(C)NC(=NC(=O)c1ccc(F)c(F)c1)Nc1n[nH]c2cncc(Cl)c12 (stereo not shown) [Compound A-43] | > 16 | – | > 16 |
| CC(C)(C)N/C(=N/C(=O)c1ccc(F)c(F)c1)Nc1n[nH]c2cccnc12 [Compound A-45] | 5 to 16 | > 16 | – |
| COC[C@H](C)N/C(=N/C(=O)c1ccc(F)c(F)c1)Nc1n[nH]c2cccnc12 [Compound A-48] | > 16 | > 16 | – |
| CCOCCN/C(=N/C(=O)c1ccc(F)c(F)c1)Nc1n[nH]c2cccnc12 [Compound A-49] | > 16 | > 16 | – |
| CC(C)(C)CN/C(=N/C(=O)c1ccc(F)c(F)c1)Nc1n[nH]c2ccc(C(F)(F)F)cc12 [Compound A-52] | < 5 | < 5 | – |
| COC[C@H](C)N/C(=N/C(=O)c1ccc(F)c(F)c1)Nc1n[nH]c2ccc(C(F)(F)F)cc12 [Compound A-53] | < 5 | > 16 | – |
| CC1(CNC(=NC(=O)c2ccc(F)c(F)c2)Nc2n[nH]c3ccc(C(F)(F)F)cc23)COC1 [Compound A-55] | > 16 | – | > 16 |
| CC(C)CN/C(=N/C(=O)c1ccc(F)c(F)c1)Nc1n[nH]c2c(O)ccc(F)c12 [Compound A-56] | < 5 | < 5 | – |
| CC(C)(C)N/C(=N/C(=O)c1ccc(F)c(F)c1)Nc1n[nH]c2c(C(F)(F)F)cccc12 [Compound A-57] | > 16 | 5 to 16 | – |
| CC(C)CNC(=NC(=O)c1ccc(F)c(F)c1)Nc1n[nH]c2c(C(F)(F)F)cccc12 [Compound A-58] | 5 to 16 | – | 5 to 16 |
| COCC(C)NC(=NC(=O)c1ccc(F)c(F)c1)Nc1n[nH]c2c(C(F)(F)F)cccc12 (stereo not shown) [Compound A-59] | > 16 | – | > 16 |
| CCOCCN/C(=N/C(=O)c1ccc(F)c(F)c1)Nc1n[nH]c2cc(Cl)ccc12 [Compound A-61] | < 5 | < 5 | – |
| CC(C)(C)N/C(=N/C(=O)c1ccc(C(F)(F)F)cc1)Nc1n[nH]c2ncccc12 [Compound A-62] | > 16 | > 16 | – |
| CCOCCNC(=NC(=O)c1ccc(Cl)cc1)Nc1n[nH]c2cc(C(F)(F)F)ccc12 [Compound A-65] | < 5 | – | < 5 |
| COC[C@H](C)N/C(=N/C(=O)c1ccc(Cl)cc1)Nc1n[nH]c2cc(C(F)(F)F)ccc12 [Compound A-66] | < 5 | < 5 | – |
| CC(C)CN/C(=N/C(=O)c1ccc(F)c(F)c1)Nc1n[nH]c2cc(Br)ccc12 [Compound A-68] | < 5 | < 5 | – |
| CC(C)(C)N/C(=N/C(=O)c1ccc(F)c(F)c1)Nc1n[nH]c2c(F)cccc12 [Compound A-72] | 5 to 16 | < 5 | – |
| CC(C)CNC(=NC(=O)c1ccc(F)c(F)c1)Nc1n[nH]c2c(F)cccc12 [Compound A-73] | 5 to 16 | < 5 | – |
| CCOCCCN/C(=N/C(=O)c1ccc(F)c(F)c1)Nc1n[nH]c2c(F)cccc12 [Compound A-77] | 5 to 16 | < 5 | – |
| COC[C@H](C)N/C(=N/C(=O)c1cccc(Cl)c1)Nc1n[nH]c2cc(Cl)ccc12 [Compound A-78] | < 5 | < 5 | – |
| CCOCCN/C(=N/C(=O)c1ccc(Cl)cc1)Nc1n[nH]c2cc(F)ccc12 [Compound A-82] | < 5 | < 5 | – |
| CC(C)(O)CN/C(=N/C(=O)c1ccc(F)c(F)c1)Nc1n[nH]c2cc(F)ccc12 [Compound A-83] | < 5 | < 5 | – |

Now from value to molecule, other results behind:

| IC50 (F1F0-ATPase) [µM] | SMILES | EC50 (Ramos cells) [µM] | EC50 (Ramos cells; Homo sapiens) [µM] |
| --- | --- | --- | --- |
| > 16 | COC[C@H](C)N/C(=N/C(=O)c1ccc(F)c(F)c1)Nc1n[nH]c2cncc(F)c12 [Compound A-33] | > 16 | – |
| 5 to 16 | CC(C)(C)N/C(=N/C(=O)c1ccc(F)c(F)c1)Nc1n[nH]c2ccccc12 [Compound A-34] | 5 to 16 | – |
| < 5 | CC(C)(C)CNC(=NC(=O)c1ccc(F)c(F)c1)Nc1n[nH]c2ccccc12 [Compound A-36] | – | < 5 |
| 5 to 16 | CC1(CN/C(=N/C(=O)c2ccc(F)c(F)c2)Nc2n[nH]c3ccccc23)COC1 [Compound A-39] | > 16 | – |
| < 5 | CC(C)CN/C(=N/C(=O)c1ccc(F)c(F)c1)Nc1n[nH]c2cncc(Cl)c12 [Compound A-41] | < 5 | – |
| > 16 | CCOCCN/C(=N/C(=O)c1ccc(F)c(F)c1)Nc1n[nH]c2cncc(Cl)c12 [Compound A-44] | > 16 | – |
| > 16 | CC(C)CN/C(=N/C(=O)c1ccc(F)c(F)c1)Nc1n[nH]c2cccnc12 [Compound A-46] | > 16 | – |
| > 16 | CC(C)(C)CNC(=NC(=O)c1ccc(F)c(F)c1)Nc1n[nH]c2cccnc12 [Compound A-47] | – | > 16 |
| < 5 | CC(C)(C)N/C(=N/C(=O)c1ccc(F)c(F)c1)Nc1n[nH]c2ccc(C(F)(F)F)cc12 [Compound A-50] | < 5 | – |
| < 5 | CC(C)CN/C(=N/C(=O)c1ccc(F)c(F)c1)Nc1n[nH]c2ccc(C(F)(F)F)cc12 [Compound A-51] | < 5 | – |
| < 5 | CCOCCNC(=NC(=O)c1ccc(F)c(F)c1)Nc1n[nH]c2ccc(C(F)(F)F)cc12 [Compound A-54] | – | > 16 |
| 5 to 16 | CCOCCNC(=NC(=O)c1ccc(F)c(F)c1)Nc1n[nH]c2c(C(F)(F)F)cccc12 [Compound A-60] | – | > 16 |
| < 5 | CCOCCN/C(=N/C(=O)c1ccc(Cl)cc1)Nc1n[nH]c2cc(Cl)ccc12 [Compound A-63] | 5 to 16 | – |
| < 5 | COCC(C)NC(=NC(=O)c1ccc(Cl)cc1)Nc1n[nH]c2cc(Cl)ccc12 (stereo not shown) [Compound A-64] | – | < 5 |
| < 5 | CC(C)CN/C(=N/C(=O)c1ccc(F)c(F)c1)Nc1n[nH]c2ccc(Br)cc12 [Compound A-67] | < 5 | – |
| > 16 | CC(C)(C)N/C(=N/C(=O)c1ccc(F)c(F)c1)Nc1n[nH]c2ncccc12 [Compound A-69] | > 16 | – |
| > 16 | CC(C)CN/C(=N/C(=O)c1ccc(F)c(F)c1)Nc1n[nH]c2ncccc12 [Compound A-70] | > 16 | – |
| 5 to 16 | COC[C@H](C)N/C(=N/C(=O)c1ccc(F)c(F)c1)Nc1n[nH]c2c(F)cccc12 [Compound A-74] | 5 to 16 | – |
| > 16 | CCOCCN/C(=N/C(=O)c1ccc(F)c(F)c1)Nc1n[nH]c2c(F)cccc12 [Compound A-75] | > 16 | – |
| < 5 | CC(C)N/C(=N/C(=O)c1ccc(F)c(F)c1)Nc1n[nH]c2c(F)cccc12 [Compound A-76] | < 5 | – |
| < 5 | COC[C@H](C)N/C(=N/C(=O)c1ccc(F)c(F)c1)Nc1n[nH]c2cc(F)ccc12 [Compound A-79] | < 5 | – |
| < 5 | COC[C@H](C)N/C(=N/C(=O)c1ccc(Cl)cc1)Nc1n[nH]c2cc(F)ccc12 [Compound A-80] | < 5 | – |
| < 5 | CCOCCN/C(=N/C(=O)c1ccc(F)c(F)c1)Nc1n[nH]c2cc(F)ccc12 [Compound A-81] | < 5 | – |
| 5 to 16 | COCC(C)NC(=NC(=O)c1ccc(F)c(F)c1)Nc1n[nH]c2c(Cl)cccc12 (stereo not shown) [Compound A-84] | – | > 16 |
| < 5 | COCC(C)NC(=NC(=O)c1cccc(Cl)c1)Nc1n[nH]c2cc(F)ccc12 (stereo not shown) [Compound A-85] | – | > 16 |
